Source: patent US20220249525A1, “Fatty Acid Compounds for Prevention and Treatment of Neurodegenerative Disorders” (T OMEGA AS, priority 2019, published 2022)

Tests used:
Assay type in all cases: cell-based
[1] = tested on: HCC827 cells; assay: Resazurin conversion cell viability/proliferation assay in HCC827 cells
Protocol: (§1) Non-small cell lung cancer cells, HCC827 (ATCC) were cultured in RPMI-1640 Glutamax medium (Sigma-Aldrich St. Louis, Mo., USA), under conventional culture conditions. Media was supplemented with 10% Fetal Bovine Serum (FBS), 1% glutamine and 1% streptomycin/penicillin (Sigma-Aldrich). HeLaNRF1/c4 reporter cells were cultured in Dulbecco's Modified Eagle's Medium (DMEM) supplemented with 10% FBS, 2 mM L-Glutamine, 100 u/ml penicillin/streptomycin (Sigma-Aldrich,). Incubation was done at 37° C. in 5% CO2.
(§2) Cell viability/proliferation was determined by the resazurin conversion assay. A total of 4000 cells were seeded in each of the 96-well plates in 100 μl of medium. After 3 hours of incubation, 100 μl of fresh medium with respective concentration of the desired compound or controls were added. Resazurin solution (Sigma-Aldrich) was added (10%, v/v in PBS) after 1 or 3 day treatment, followed by 3 hour incubation at 37° C. and 5% CO2. Resazurin fluorescence (excitation, 540 nm; emission, 590 nm) was measured and measurements were corrected for background signals. […] Relative viability was calculated from percent fluorescence relative to DMSO-treated control wells.

[2] = tested on: HeLaNRF1/c4 reporter cells; assay: Resazurin conversion assay in HeLaNRF1/c4 reporter cells; conditions: test compounds 30 μM and 60 μM, long treatment
Protocol: as §1, §2
In order to investigate if some of the compounds induce metabolic adaptations involving mitochondrial biogenesis, we employed the HeLaNRF1/c4 reporter cells in which activation of the transcription factor NRF1 triggers expression of GFP. Since adaptations of mitochondrial biogenesis are known to require some days to develop, we used a relatively low dosage (30 μM and 60 μM) of the compounds, to allow longer treatment period compared to the previous short term experiments.

[3] = tested on: SH-SY5Y cells; assay: WST-1 cell viability assay in SH-SY5Y cells; conditions: 4 days, 31-125 μM
Protocol: The fatty acids (FAs) TTA, tr-TTA, N-TTA, tr-N-TTA and (PA) were complexed with FBS following the same procedure, differing only in final stock concentration, due to variation in solubility. Approximately 0.07 g of FA was weighed in a 10 ml sterile serum tube (BD Vacutainer®, catalog no. 368430) and dissolved in sterile filtrated 0.1 M sodium hydroxide (NaOH) of a volume giving 25 mM FA, controls without FA were made, containing only NaOH and FBS. A syringe (Sterican®, catalog no. 4657577) was pierced through the rubber cap of the serum tube, and the tube was placed in an 80° C. water bath until the FAs were dissolved. Each FA-solution was then diluted in inactivated FBS to stock concentration 1 mM (N-TTA, tr-N-TTA), and 2 mM by adding the FA to a volume of 100% FBS after heating the FBS to 45° C. in a water bath. The transfer of FA to FBS had to be executed controlled and swiftly to avoid the formation of precipitates. If any precipitates in the solution were visible, the FA and a new volume of FBS were reheated, and the procedure performed again. Following successful complexation, the stock solutions were stored at −20° C. in 1 ml aliquots (CryoPure tube, Sarstedt AG & Co, Nümbrecht, Germany).
The WST-1 cell proliferation assay was performed using the kit from Roche (table 4.2.) and its accompanying procedure (version 16, February 2011) (134). The number of cells seeded to each well in the 96-well plates (Corning Inc., catalog no. 353072) varied depending on the treatment time and cell type (table 3.).
Cell suspension and medium were then transferred to each well in a volume of 100 μl in total. Subsequently, the plates were incubated for 24 hours to make the cells settle. The next day, 100 μl with FA complexed with FBS or diluted in DMSO was added to row A or B in the 96-well plate to give a defined concentration. The solution was then mixed with a pipette, and 100 μl of the medium with FA was transferred to the next well in the same column, mixed by pipetting up and down at least five times before 100 μl was transferred again to the next well in the column. This procedure was repeated until the second last, or last well in each column was reached, making a series of two-fold dilution of the FAs in the cell medium. Two parallels were performed for every treatment per run. After the addition of FAs, the plates were incubated for 24-96 hours depending on the length of the treatment.
Following the FA-treatment, the cells were studied under a microscope to ensure that visual observations matched the measured absorbance and cell activity in the assay. Subsequently, 10 μl WST-1 reagent was added to each well, and the plates were incubated for 3 hours. Due to high activity in the HuH-7 cell line, the WST-1 reagent was diluted 1:1 with PBS. Before the measurement of absorbance, the plates were placed on a shaker for 1 minute ensuring thoroughly mixing of the wells. The plates were then put straight into the spectrophotometer (SpectraMax Plus 384 Microplate Reader, Molecular Devices Corporation, San Jose, Calif., USA) to perform the measurements. […] The absorbance of the samples was measured at 450 nm, and the reference wavelength was set to 650 nm. For each well, the measured absorption at 650 nm was subtracted from the absorption at 450 nm. The measured absorbance for the treated cells was then compared to the controls (blank) containing only cells and growth medium.

CCCCCCCCCCCCCCNCC(=O)O [N-TTA, N-tetradecylglycine]
dose-dependent pattern of antiproliferative effects ([1]; HCC827 cells, three different concentrations): dose-dependent pattern of antiproliferative effects was found | overall effects on cell viability and mitochondrial function (summary) ([1]; cultured cells, relatively high dosage): cytotoxic effects | resazurin conversion [2]: dose-dependent reduction | WST-1 activity compared to untreated cells [3]: about 110%
